SMILES strings stand for the structures.

The target in data set [1] is Calcium/calmodulin-dependent protein kinase kinase 2 (Homo sapiens, UniProt Q96RR4). The data set is described as follows: Induction of ePL tagged degradation of CaMKK2 (unknown origin) expressed in […] cells incubated for 24 hrs by luminescence based analysis. The format is cell-based, HEK293T.
Data set [2] in a line: Half life in C57BL/6 mouse at 10 mg/kg, po measured upto 72 hrs. The data set is classed as ADME, organism-based. The note with it: in vivo.
Data set [3] is described as follows: Bioavailability in C57BL/6 mouse at 10 mg/kg, sc measured upto 72 hrs. The data set is classed as ADME, organism-based. The note with it: in vivo.
Data set [4] addresses Calcium/calmodulin-dependent protein kinase kinase 1 (Homo sapiens, UniProt Q8N5S9). In words: Inhibition of CaMKK1 (unknown origin) incubated for 20 mins in presence of kinase tracer 236 by TR-FRET.
Data set [5] can be described thus: Cmax in C57BL/6 mouse at 10 mg/kg, po measured upto 72 hrs. The data set is classed as ADME, organism-based. Details: time < 72 hrs, dose 10 mg/kg, route po. The note with it: in vivo.
The test system of a further data set is A-427. In words: Antiproliferative activity against human A-427 cells assessed as reduction in cell growth incubated for 48 hrs by CellTiter assay. The note with it: A-427, 48 h.
Data set [6] is described as follows: Oral bioavailability in C57BL/6 mouse at 10 mg/kg measured upto 72 hrs. The data set is classed as ADME, organism-based. Conditions: in vivo.
A short description of data set [7]: AUC (0 to 24 hrs) in C57BL/6 mouse at 10 mg/kg, sc measured upto 72 hrs. The note with it: in vivo. The data set is classed as ADME, organism-based. Details: time < 72 hrs, dose 10 mg/kg, route sc.
In data set [8] the target is Von Hippel-Lindau disease tumor suppressor/Elongin B/Elongin C (Homo sapiens, UniProt P40337). In words: Binding affinity to N-terminal 6 his tagged VHL (54 to 213 residues)/truncated ElonginC (17 to 122 residues) /full length ElonginB (unknown origin) expressed in Escherichia coli assessed as dissociation constant measured upto 300 secs by SPR analysis. (In SPR one partner is held on a chip, and binding of the other changes the refractive index at the surface.)

Data set [9] can be described thus: Half life in C57BL/6 mouse at 10 mg/kg, sc measured upto 72 hrs. The note with it: in vivo. The data set is classed as ADME, organism-based.
The nature of data set [10]: Cmax in C57BL/6 mouse at 10 mg/kg, sc measured upto 72 hrs. The data set is classed as ADME, organism-based. The arrangement: dose 10 mg/kg, time < 72 hrs, route sc. The note with it: in vivo.
The nature of data set [11]: AUC (0 to 24 hrs) in C57BL/6 mouse at 10 mg/kg, po measured upto 72 hrs. The note with it: in vivo. The format is ADME, organism-based. The arrangement: dose 10 mg/kg, time < 72 hrs, route po.
The nature of data set [12]: Tmax in C57BL/6 mouse at 10 mg/kg, po measured upto 72 hrs. The format is ADME, organism-based. Conditions: in vivo.
Data set [13] can be described thus: Tmax in C57BL/6 mouse at 10 mg/kg, sc measured upto 72 hrs. The data set is classed as ADME, organism-based. The note with it: in vivo.
The nature of data set [14]: Bioavailability in Beagle dog at 3 mg/kg, po or 1 mg/kg, iv measured upto 72 hrs. The note with it: in vivo. The format is ADME, organism-based, Canis lupus familiaris.
Data set [15] in a line: Volume of distribution at steady state in Sprague-Dawley rat at 3 mg/kg, po or 1 mg/kg, iv measured upto 24 hrs. Conditions: in vivo. The data set is classed as ADME, organism-based.
Data set [16] in a line: Volume of distribution in steady state in Beagle dog at 3 mg/kg, po or 1 mg/kg, iv measured upto 72 hrs. The format is ADME, organism-based, Canis lupus familiaris. The note with it: in vivo.
Data set [17] has as its target Voltage-gated inwardly rectifying potassium channel KCNH2 (Homo sapiens, UniProt Q12809). The data set is described as follows: Inhibition of human ERG. The format is toxicity.
The nature of data set [18]: Plasma protein binding in human. The data set is classed as ADME, cell-free. The arrangement: dose or concentration left out as unconfirmed. The note with it: route po, read-out: PPB (converted).
The nature of data set [19]: Half life in Cynomolgus monkey at 3 mg/kg, po or 1 mg/kg, iv measured upto 72 hrs. The format is ADME, organism-based, Macaca fascicularis. The note with it: in vivo.
Data set [20] is described as follows: Half life in Beagle dog at 3 mg/kg, po or 1 mg/kg, iv measured upto 72 hrs. The format is ADME, organism-based, Canis lupus familiaris. Conditions: in vivo.
The nature of data set [21]: Plasma protein binding in Beagle dog. The data set is classed as ADME, cell-free, Canis lupus familiaris. Conditions: read-out: PPB (converted).
Data set [22] can be described thus: Bioavailability in Sprague-Dawley rat 3 mg/kg, po or 1 mg/kg, iv measured upto 24 hrs. The data set is classed as ADME, organism-based. The note with it: in vivo.
Data set [23] is described as follows: AUC (0 to 72 hrs) in Beagle dog at 3 mg/kg, po or 1 mg/kg, iv measured upto 72 hrs. The format is ADME, organism-based, Canis lupus familiaris. Details: dose 3 mg/kg, time < 72 hrs, route po. Conditions: in vivo.
Data set [24] in a line: Bioavailability in Cynomolgus monkey at 3 mg/kg, po or 1 mg/kg, iv measured upto 72 hrs. The data set is classed as ADME, organism-based, Macaca fascicularis. Conditions: in vivo.
Data set [25] can be described thus: Tmax in Beagle dog at 3 mg/kg, po or 1 mg/kg, iv measured upto 72 hrs. The data set is classed as ADME, organism-based, Canis lupus familiaris. The note with it: in vivo.
Data set [26] in a line: Plasma protein binding in Cynomolgus monkey. The format is ADME, cell-free, Macaca fascicularis. Conditions: read-out: PPB (converted).
Data set [27] in a line: Plasma protein binding in Sprague-Dawley rat. The format is ADME, cell-free. Conditions: read-out: PPB (converted).
Data set [28] can be described thus: Tmax in Sprague-Dawley rat at 3 mg/kg, po or 1 mg/kg, iv measured upto 24 hrs. The data set is classed as ADME, organism-based. The note with it: in vivo.
Data set [29] can be described thus: Tmax in Cynomolgus monkey at 3 mg/kg, po or 1 mg/kg, iv measured upto 72 hrs. The format is ADME, organism-based, Macaca fascicularis. The note with it: in vivo.
The nature of data set [30]: AUC (0 to 72 hrs) in Cynomolgus monkey at 3 mg/kg, po or 1 mg/kg, iv measured upto 72 hrs. The data set is classed as ADME, organism-based, Macaca fascicularis. The arrangement: dose 3 mg/kg, time < 72 hrs, route po. The note with it: in vivo.
Data set [31] in a line: Cmax in Sprague-Dawley rat at 3 mg/kg, po or 1 mg/kg, iv measured upto 24 hrs. The data set is classed as ADME, organism-based. Details: dose 3 mg/kg, time < 24 hrs, route po. The note with it: in vivo.
Data set [32] in a line: Cmax in Cynomolgus monkey at 3 mg/kg, po or 1 mg/kg, iv measured upto 72 hrs. The format is ADME, organism-based, Macaca fascicularis. The arrangement: time < 72 hrs, dose 3 mg/kg, route po. The note with it: in vivo.
Data set [33] is described as follows: AUC (0 to 24 hrs) in Sprague-Dawley rat at 3 mg/kg, po or 1 mg/kg, iv measured upto 24 hrs. The format is ADME, organism-based. The arrangement: time < 24 hrs, dose 3 mg/kg, route po. Conditions: in vivo.
The nature of data set [34]: Cmax in Beagle dog at 3 mg/kg, po or 1 mg/kg, iv measured upto 72 hrs. The format is ADME, organism-based, Canis lupus familiaris. The arrangement: time < 72 hrs, dose 3 mg/kg, route po. The note with it: in vivo.
A short description of data set [35]: Half life in Sprague-Dawley rat at 3 mg/kg, po or 1 mg/kg, iv measured upto 24 hrs. The data set is classed as ADME, organism-based. Conditions: in vivo.

Calcium/calmodulin-dependent protein kinase kinase 2, sequence (Q96RR4 whole entry): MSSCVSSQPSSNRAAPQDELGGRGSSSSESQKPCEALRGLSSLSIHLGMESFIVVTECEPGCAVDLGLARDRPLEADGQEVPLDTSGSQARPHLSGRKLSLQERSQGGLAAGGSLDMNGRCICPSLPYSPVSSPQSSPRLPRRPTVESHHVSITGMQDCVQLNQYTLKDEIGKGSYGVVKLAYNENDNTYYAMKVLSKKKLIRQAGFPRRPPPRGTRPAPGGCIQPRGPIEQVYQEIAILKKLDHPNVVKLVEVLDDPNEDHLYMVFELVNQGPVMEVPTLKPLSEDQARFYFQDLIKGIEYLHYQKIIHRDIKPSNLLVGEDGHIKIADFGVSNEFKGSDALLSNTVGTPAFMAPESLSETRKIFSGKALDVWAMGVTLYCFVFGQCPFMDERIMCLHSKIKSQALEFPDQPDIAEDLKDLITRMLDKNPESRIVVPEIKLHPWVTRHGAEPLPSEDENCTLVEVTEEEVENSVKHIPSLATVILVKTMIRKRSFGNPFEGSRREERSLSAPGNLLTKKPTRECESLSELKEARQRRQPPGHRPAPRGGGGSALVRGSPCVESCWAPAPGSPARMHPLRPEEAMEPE
Calcium/calmodulin-dependent protein kinase kinase 1, sequence (Q8N5S9 whole entry): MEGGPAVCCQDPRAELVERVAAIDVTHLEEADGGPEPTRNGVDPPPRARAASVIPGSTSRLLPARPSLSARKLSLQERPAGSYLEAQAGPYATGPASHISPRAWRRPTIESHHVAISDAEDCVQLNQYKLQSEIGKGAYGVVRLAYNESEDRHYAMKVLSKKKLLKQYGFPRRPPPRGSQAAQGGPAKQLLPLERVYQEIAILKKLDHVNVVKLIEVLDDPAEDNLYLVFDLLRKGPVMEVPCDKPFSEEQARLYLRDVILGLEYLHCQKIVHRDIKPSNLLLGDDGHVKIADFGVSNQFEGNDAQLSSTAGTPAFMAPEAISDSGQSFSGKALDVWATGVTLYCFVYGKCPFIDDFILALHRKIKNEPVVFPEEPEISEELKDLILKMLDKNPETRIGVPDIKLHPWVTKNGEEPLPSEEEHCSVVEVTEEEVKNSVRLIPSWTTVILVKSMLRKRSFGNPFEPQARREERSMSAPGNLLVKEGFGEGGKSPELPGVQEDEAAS
Von Hippel-Lindau disease tumor suppressor/Elongin B/Elongin C, sequence (P40337 whole entry, looked up, the tested form may be a part): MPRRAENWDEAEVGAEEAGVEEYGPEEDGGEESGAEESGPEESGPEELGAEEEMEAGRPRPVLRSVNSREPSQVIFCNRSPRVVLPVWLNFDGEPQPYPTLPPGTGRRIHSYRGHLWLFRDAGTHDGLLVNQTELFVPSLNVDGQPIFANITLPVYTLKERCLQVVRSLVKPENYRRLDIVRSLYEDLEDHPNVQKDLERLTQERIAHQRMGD
Voltage-gated inwardly rectifying potassium channel KCNH2, sequence (Q12809 whole entry): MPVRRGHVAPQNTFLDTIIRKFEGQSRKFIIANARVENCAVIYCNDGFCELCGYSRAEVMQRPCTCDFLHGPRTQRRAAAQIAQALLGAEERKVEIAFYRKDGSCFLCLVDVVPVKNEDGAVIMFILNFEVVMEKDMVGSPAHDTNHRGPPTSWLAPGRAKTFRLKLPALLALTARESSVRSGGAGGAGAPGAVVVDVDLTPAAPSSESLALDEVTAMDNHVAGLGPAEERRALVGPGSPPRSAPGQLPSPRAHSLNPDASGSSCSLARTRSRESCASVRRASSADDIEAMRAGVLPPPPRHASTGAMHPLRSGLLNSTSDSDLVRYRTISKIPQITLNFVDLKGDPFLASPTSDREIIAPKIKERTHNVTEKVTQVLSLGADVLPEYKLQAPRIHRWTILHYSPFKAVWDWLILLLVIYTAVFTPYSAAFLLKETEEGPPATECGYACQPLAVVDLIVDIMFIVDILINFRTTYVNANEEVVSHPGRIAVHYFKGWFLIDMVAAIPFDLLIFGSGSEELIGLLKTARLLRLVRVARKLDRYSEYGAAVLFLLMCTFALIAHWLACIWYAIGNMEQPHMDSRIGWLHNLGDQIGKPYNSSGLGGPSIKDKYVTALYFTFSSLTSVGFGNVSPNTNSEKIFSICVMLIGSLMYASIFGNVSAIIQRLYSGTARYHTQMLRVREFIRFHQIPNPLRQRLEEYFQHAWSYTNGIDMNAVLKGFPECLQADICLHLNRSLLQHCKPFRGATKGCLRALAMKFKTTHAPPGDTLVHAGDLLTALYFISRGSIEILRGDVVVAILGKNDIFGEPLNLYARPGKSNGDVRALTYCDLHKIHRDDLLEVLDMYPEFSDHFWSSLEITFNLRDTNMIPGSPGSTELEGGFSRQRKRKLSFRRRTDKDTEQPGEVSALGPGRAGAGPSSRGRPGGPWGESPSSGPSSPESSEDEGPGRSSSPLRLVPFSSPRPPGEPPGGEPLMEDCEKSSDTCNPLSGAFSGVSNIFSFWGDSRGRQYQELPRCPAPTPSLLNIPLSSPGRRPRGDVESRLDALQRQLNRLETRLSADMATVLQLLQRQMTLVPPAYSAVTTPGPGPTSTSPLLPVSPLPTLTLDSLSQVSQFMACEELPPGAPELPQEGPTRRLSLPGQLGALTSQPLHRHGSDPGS

On to `Cc1ncsc1-c1ccc(CNC(=O)[C@@H]2C[C@@H](O)CN2C(=O)[C@@H](NC(=O)CCCCCCCOc2ccc3c(-c4ccc(C(=O)O)c(C5CCCC5)c4)ncnc3c2)C(C)(C)C)cc1`, for which, in [1], the EC50 (usually the concentration at which the effect is half-maximal) came to 0.51 µM.
As for `Cc1ncsc1-c1ccc(CNC(=O)[C@@H]2C[C@@H](O)CN2C(=O)[C@@H](NC(=O)CCCCCOc2ccc3c(-c4ccc(C(=O)O)c(C5CCCC5)c4)ncnc3c2)C(C)(C)C)cc1`, the concentration giving a half-maximal response (EC50) in data set [1] was greater than 10 µM.
As to `Cc1ncsc1-c1ccc(CNC(=O)[C@@H]2C[C@@H](O)CN2C(=O)[C@@H](NC(=O)CCCCCCCCCOc2ccc3c(-c4ccc(C(=O)O)c(C5CCCC5)c4)ncnc3c2)C(C)(C)C)cc1`, the results for the half-life in data set [2] and in [9] were 8.1 h and 24 h, respectively. Besides, the figures for the bioavailability in [3] and in [6] were 100% and 18%, respectively. In data set [4], the IC50 (as a rule, the concentration at which inhibition is half-maximal) is 0.094 µM. The values for the highest concentration (Cmax) in data set [5] and in [10] were 3.21 µM and 7.18 µM, respectively. The EC50 with A-427 was greater than 8 µM. Besides, the exposure AUC(0-t) (in general, the area under the concentration-time curve up to a stated or last time point) at 72 h in data set [7] was determined as 39.9 µM·h; in data set [11], 3.96 µM·h. In addition, the dissociation constant (Kd) (commonly the free concentration of one partner at which half of the binding sites on the other are occupied at equilibrium, for simple one-to-one binding) in data set [8] is 0.13 µM. In addition, the Tmax in data set [12] and in data set [13] was 0.5 h throughout.
Turning to `CCOc1cc2ncnc(-c3ccc(C(=O)O)c(C4CCCC4)c3)c2cc1F`, the half-maximal inhibitory concentration (IC50) in [4] was found to be 0.054 µM.
For `Cc1ncsc1-c1ccc(CNC(=O)[C@@H]2C[C@@H](O)CN2C(=O)[C@@H](NC(=O)CCCCCCOc2ccc3c(-c4ccc(C(=O)O)c(C5CCCC5)c4)ncnc3c2)C(C)(C)C)cc1`, the EC50 in [1] amounted to 2 µM.
Still for that read-out and setting: for `Cc1ncsc1-c1ccc(CNC(=O)[C@@H]2C[C@@H](O)CN2C(=O)[C@@H](NC(=O)CCCCCCCCCCCOc2ccc3c(-c4ccc(C(=O)O)c(C5CCCC5)c4)ncnc3c2)C(C)(C)C)cc1` the value was 4.5 µM.
Regarding `CCOc1cc2ncnc(-c3ccc(C(=O)O)c(C(C)C)c3)c2cc1F`, the half-maximal inhibitory concentration (IC50) in data set [4] came to 0.011 µM.
For the compound `CCOc1cc(F)c2c(-c3ccc(C(=O)O)c(C(C)C)c3)ncnc2c1`, the bioavailability (usually dose-corrected exposure relative to a reference, in per cent) in [14] is 68%; in data set [22], 80%; in [24] it was 95%. Moreover, the Vdss in [15] was found to be 0.57 L/kg; in data set [16], 0.44 L/kg. For the same compound, the half-maximal inhibitory concentration (IC50) in data set [17] is greater than 30 µM; in data set [4], 0.012 µM. The fraction unbound at 72 h in [18] is 0.003. Also, the half-life – broadly, the time in which the quantity being followed falls by half – was 20 h in [19], 11 h in data set [20] and 4.9 h in data set [35]. Also, the fraction unbound in data set [21] is 0.02; in data set [26] it was 0.007; in [27] it was 0.012. The AUC(0-t) at 72 h was 79 µM·h in [23] and 282 µM·h in data set [30]. Also, the time of peak concentration (Tmax) (commonly the time at which the peak concentration occurs) in [25] came out at 0.5 h; in [28], 3 h; in data set [29], 1.7 h. The Cmax (usually the maximum level reached in the sampled fluid or tissue) in data set [31] came to 19 µM; in data set [32], 28 µM; in data set [34], 30 µM. This compound also gave an exposure AUC(0-t) at 24 h in data set [33] of 58 µM·h.
For the compound `Cc1ncsc1-c1ccc(CNC(=O)[C@@H]2C[C@@H](O)CN2C(=O)[C@@H](N(C)C(=O)CCCCCCCCCOc2ccc3c(-c4ccc(C(=O)O)c(C5CCCC5)c4)ncnc3c2)C(C)(C)C)cc1`, the half-maximal effective concentration (EC50) in data set [1] was greater than 10 µM.
As to `Cc1ncsc1-c1ccc(CNC(=O)[C@@H]2C[C@@H](O)CN2C(=O)[C@@H](NC(=O)CCCCCCCCOc2ccc3c(-c4ccc(C(=O)O)c(C5CCCC5)c4)ncnc3c2)C(C)(C)C)cc1`, the EC50 in data set [1] amounted to 0.62 µM.
Regarding `Cc1ncsc1-c1ccc(CNC(=O)[C@@H]2C[C@@H](O)CN2C(=O)[C@@H](NC(=O)CCCCCCCCCCOc2ccc3c(-c4ccc(C(=O)O)c(C5CCCC5)c4)ncnc3c2)C(C)(C)C)cc1`, in [1], the 50% effective concentration (EC50) was 0.53 µM.
`CCOc1ccc2c(-c3ccc(C(=O)O)c(C(C)C)c3)ncnc2c1`: the half-inhibitory concentration (IC50) in [4] was 0.047 µM.

Values taken from ChEMBL document CHEMBL5375964, “Identification of Small Molecule Inhibitors and Ligand Directed Degraders of Calcium/Calmodulin Dependent Protein Kinase Kinase 1 and 2 (CaMKK1/2)” (J Med Chem, 2023).
